Source: paper PMC8092647, “Assessment of carbapenems in a mouse model of Mycobacterium tuberculosis infection” (PLoS ONE, 2021)
Entries after “also recorded” stand apart in the source; their conditions may differ. Like-named read-outs stand apart in the source and are kept apart here.

Experiments:
[1] = tested on: M. tuberculosis; design: method as in Chambers et al. [7] (imipenem), Kumar et al. [6] (biapenem); details: acute M. tuberculosis infection model in mice; ref Chambers et al. [7] (imipenem), Kumar et al. [6] (biapenem); cited from earlier work
[2] = tested on: M. tuberculosis H37Rv; test: Minimum inhibitory concentration (MIC) by micro broth dilution, read by visual inspection of the bacterial pellet after 14 d; format: cell-based; details: Mycobacterium tuberculosis, 336 h
[3] = Mouse plasma pharmacokinetics after a single 25 mg/kg sc dose (LC-MS, non-compartmental model); details: for %T>MIC: female BALB/c mice, single 25 mg/kg sc, percentage of time above the MIC over 3 h; for AUC(0-t) / Cmax / half-life / concentration at 3 h: female, BALB/c, mouse, plasma, sc, 25 mg/kg
[4] = female, BALB/c, mouse, in vivo, sc, 25 mg/kg
[5] = in vivo; details: female, BALB/c, mouse, sc, 25 mg/kg
[6] = tested on: M. tuberculosis H37Rv; test: Sub-acute mouse model of M. tuberculosis infection, lung CFU burden; format: in vivo, BALB/c mice; details: for onset of activity in infected mice (reduction of lung burden at one week vs no-treatment group): 400 mg/kg bid sc + 75 mg/kg clavulanate, little or no reduction at one week; for efficacy in comparison (lung M. tuberculosis burden): 1 and 3 weeks
[7] = M. tuberculosis H37Rv, 7H9 broth without Tween-80, 14 d, drug alone without clavulanate, read-out: MIC
[8] = carbapenems 400 mg/kg bid sc + 75 mg/kg clavulanate, rifampin 10 mg/kg once daily orally

Row | SMILES | MIC [2, 7] | %T>MIC [3] | AUC(0-t) [3] | Cmax [3] | half-life [3] | onset of activity in infected mice (reduction of lung burden at one week vs no-treatment group) [6] | MIC ([2]; H37RV) | other results
1 | C[C@@H](O)[C@H]1C(=O)N2C(C(=O)[O-])=C(SC3Cn4cnc[n+]4C3)[C@H](C)[C@H]12 (stereo partly drawn) [Biapenem, reference compound] | 2.5 to 5 µg/mL | 33–100% | 63300 ng·h/mL | 55600 ng/mL | 17.3 min |  |  | onset of activity in infected mice [1]: delayed activity
2 | C[C@@H](O)[C@H]1C(=O)N2C(C(=O)O)=C(SCC(=O)OC(C)(C)C)[C@H](C)[C@H]12 [JSF-2196] | 2 to 4 µg/mL |  |  |  |  |  |  | %T>MIC [4]: 17–33%; AUC(0-t) [5]: 9060 ng·h/mL; Cmax [5]: 20500 ng/mL; half-life [5]: 13.8 min
3 | CSC1=C(C(=O)[O-])N2C(=O)[C@H]([C@@H](C)O)[C@H]2[C@H]1C.[Na+] [JSF-2204, Sodium (4R,5S,6S)-6-((R)-1-hydroxyethyl)-4-methyl-3-(methylthio)-7-oxo-1-azabicyclo[3.2.0]hept-2-ene-2-carboxylate] |  | 33–100% | 23000 ng·h/mL | 63000 ng/mL |  | delayed activity | 0.25 to 0.5 µg/mL | efficacy in comparison (lung M. tuberculosis burden) [6, 8]: efficacy equivalent to that of meropenem; also recorded: inferior to rifampin; also recorded: statistically indistinguishable efficacy; also recorded: statistically equivalent performance to meropenem
4 | C[C@@H](O)[C@H]1C(=O)N2C(C(=O)O)=C(SCC(F)(F)F)[C@H](C)[C@H]12 [JSF-2415] | 4 to 8 µg/mL |  |  |  |  |  |  | %T>MIC [4]: 17–33%; AUC(0-t) [5]: 12500 ng·h/mL; Cmax [5]: 34800 ng/mL; half-life [5]: 14.5 min
5 | C[C@@H](O)[C@H]1C(=O)N2C(C(=O)[O-])=C(SCCc3ccccc3)[C@H](C)[C@H]12.[Na+] [JSF-2417, Sodium (4R,5S,6S)-6-((R)-1-hydroxyethyl)-4-methyl-7-oxo-3-(phenethylthio)-1-azabicyclo[3.2.0]hept-2-ene-2-carboxylate] |  | 8.3–33% | 5740 ng·h/mL | 5190 ng/mL | 38.8 min | delayed activity | 2 to 4 µg/mL | efficacy in comparison (lung M. tuberculosis burden) [6, 8]: inferior; concentration at 3 h [3]: 262 ng/mL
6 | C[C@@H](O)[C@H]1C(=O)N2C(C(=O)[O-])=C(SCCC(=O)N3CCOCC3)[C@H](C)[C@H]12.[Na+] [JSF-2700, Sodium (4R,5S,6S)-6-((R)-1-hydroxyethyl)-4-methyl-3-((3-morpholino-3-oxopropyl)thio)-7-oxo-1-azabicyclo[3.2.0]hept-2-ene-2-carboxylate] |  | 8.3–33% | 5930 ng·h/mL | 17400 ng/mL | 15.5 min |  | 2 to 4 µg/mL | concentration at 3 h [3]: 6 ng/mL
7 | C[C@@H](O)[C@H]1C(=O)N2C(C(=O)O)=C(S[C@@H]3CN[C@H](C(=O)N(C)C)C3)[C@H](C)[C@H]12 [Meropenem, reference compound] | 4 to 8 µg/mL | <8.3% | 613 ng·h/mL | 1340 ng/mL | 27.8 min | delayed activity |  | 
8 | C[C@@H](O)[C@H]1C(=O)N2C(C(=O)O)=C(SCCN=CN)C[C@H]12 [imipenem] |  |  |  |  |  |  |  | onset of activity in infected mice [1]: delayed activity
9 | CO[C@H]1/C=C/O[C@@]2(C)Oc3c(C)c(O)c4c(O)c(c(/C=N/N5CCN(C)CC5)c(O)c4c3C2=O)NC(=O)/C(C)=C\C=C\[C@H](C)[C@H](O)[C@@H](C)[C@@H](O)[C@@H](C)[C@H](OC(C)=O)[C@@H]1C [rifampin, reference compound] |  |  |  |  |  |  |  | effect on lung bacterial burden after one week of dosing ([6]; rifampin 10 mg/kg once daily orally, 1 week): bacteriostatic effect; effect on lung bacterial burden after 3 weeks of dosing ([6]; rifampin 10 mg/kg once daily orally, carbapenems 400 mg/kg bid sc + 75 mg/kg clavulanate, 3 weeks): bacteriostatic effect
